Measurements: the NIST ThermoML archive (doi:10.1021/je100353j)
Several values for one entry are separate records, joined by “and”; a condition that tells them apart may be missing. Equal entries are not always repeated.

What was measured:
[1] = Liquid
[2] = xn = mol fraction of the nth substance listed; details: Liquid, x2 = 0

COC(=O)OC [dimethyl carbonate]
mass density, [1]
Details | 101.33 kPa | 5000 kPa | 10000 kPa | 20000 kPa | 30000 kPa | 40000 kPa
293.15 K | 1069.8 kg/m3 | 1074.4 kg/m3 | 1078.6 kg/m3 | 1086.9 kg/m3 | 1094.5 kg/m3 | 1101.9 kg/m3
298.15 K | 1063.2 kg/m3 | 1068 kg/m3 | 1072.4 kg/m3 | 1080.8 kg/m3 | 1088.7 kg/m3 | 1096.2 kg/m3
303.15 K | 1056.5 kg/m3 | 1061.3 kg/m3 | 1066 kg/m3 and 1065 kg/m3 | 1074.7 kg/m3 | 1082.9 kg/m3 | 1090.4 kg/m3
308.15 K | 1049.8 kg/m3 | 1054.6 kg/m3 | 1059.4 kg/m3 | 1068.5 kg/m3 | 1077 kg/m3 | 1084.8 kg/m3
313.15 K | 1043 kg/m3 | 1048.1 kg/m3 | 1053 kg/m3 | 1062.3 kg/m3 | 1071 kg/m3 | 1079 kg/m3

C1CCCCC1 [cyclohexane] + COC(=O)OC
mass density [kg/m3], [2]
Details | 100 kPa | 5000 kPa | 10000 kPa | 20000 kPa | 30000 kPa | 40000 kPa
293.15 K | 778.8 | 782.8 | 786.6 | 793.9 | 801 | 807.8
298.15 K | 773.9 | 778.3 | 782.3 | 789.8 | 796.7 | 802.9
303.15 K | 769.3 | 773.6 | 777.8 | 785.7 | 792.8 | 799.2
308.15 K | 764.5 | 769 | 773.4 | 781.5 | 788.8 | 795.5
313.15 K | 759.7 | 764.5 | 768.9 | 777.4 | 784.8 | 791.8

C1CCCCC1 [cyclohexane]
mass density [kg/m3], [1]
Details | 101.33 kPa | 5000 kPa | 10000 kPa | 20000 kPa | 30000 kPa | 40000 kPa
293.15 K | 778.8 | 782.8 | 786.6 | 793.9 | 801 | 807.8
298.15 K | 773.9 | 778.3 | 782.3 | 789.8 | 796.7 | 802.9
303.15 K | 769.3 | 773.6 | 777.8 | 785.7 | 792.8 | 799.2
308.15 K | 764.5 | 769 | 773.4 | 781.5 | 788.8 | 795.5
313.15 K | 759.7 | 764.5 | 768.9 | 777.4 | 784.8 | 791.8
